Experimental data reported in US11214572B2, “7-site substituted pyrrole triazine compounds or pharmaceutically acceptable salts thereof, and preparation method thereof and uses thereof” (SHANGHAI INSTITUTE OF MATERIA MEDICA, CHINESE ACADEMY OF …, priority 2017, dated 2022).
pIC50: −log10 of the molar value. “And” between values parts separate entries of the source, which are not always exact repeats. Equal values may be shown once. Read-outs that look alike come from different tables or passages of the source. Values belong to the compound of their own block, whether it stands above or below them.

Experiments:
PI3Kγ = PI3Kγ (Homo sapiens, UniProt P48736); experiment: PI3K kinase activity, γ isoform; assay type: biochemical; conditions: for inhibition at 0.1 µM: compound 100 nM, read-out: IH (%) @ 100 nM, γ;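 as to all read-outs here: kinase reaction run in 384-well plates, with inhibition normalised between the 0% and 100% reference reactions. IC50 derived from a ten-point, fourfold serial dilution series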
PI3Kγ, sequence (P48736 whole entry, canonical isoform): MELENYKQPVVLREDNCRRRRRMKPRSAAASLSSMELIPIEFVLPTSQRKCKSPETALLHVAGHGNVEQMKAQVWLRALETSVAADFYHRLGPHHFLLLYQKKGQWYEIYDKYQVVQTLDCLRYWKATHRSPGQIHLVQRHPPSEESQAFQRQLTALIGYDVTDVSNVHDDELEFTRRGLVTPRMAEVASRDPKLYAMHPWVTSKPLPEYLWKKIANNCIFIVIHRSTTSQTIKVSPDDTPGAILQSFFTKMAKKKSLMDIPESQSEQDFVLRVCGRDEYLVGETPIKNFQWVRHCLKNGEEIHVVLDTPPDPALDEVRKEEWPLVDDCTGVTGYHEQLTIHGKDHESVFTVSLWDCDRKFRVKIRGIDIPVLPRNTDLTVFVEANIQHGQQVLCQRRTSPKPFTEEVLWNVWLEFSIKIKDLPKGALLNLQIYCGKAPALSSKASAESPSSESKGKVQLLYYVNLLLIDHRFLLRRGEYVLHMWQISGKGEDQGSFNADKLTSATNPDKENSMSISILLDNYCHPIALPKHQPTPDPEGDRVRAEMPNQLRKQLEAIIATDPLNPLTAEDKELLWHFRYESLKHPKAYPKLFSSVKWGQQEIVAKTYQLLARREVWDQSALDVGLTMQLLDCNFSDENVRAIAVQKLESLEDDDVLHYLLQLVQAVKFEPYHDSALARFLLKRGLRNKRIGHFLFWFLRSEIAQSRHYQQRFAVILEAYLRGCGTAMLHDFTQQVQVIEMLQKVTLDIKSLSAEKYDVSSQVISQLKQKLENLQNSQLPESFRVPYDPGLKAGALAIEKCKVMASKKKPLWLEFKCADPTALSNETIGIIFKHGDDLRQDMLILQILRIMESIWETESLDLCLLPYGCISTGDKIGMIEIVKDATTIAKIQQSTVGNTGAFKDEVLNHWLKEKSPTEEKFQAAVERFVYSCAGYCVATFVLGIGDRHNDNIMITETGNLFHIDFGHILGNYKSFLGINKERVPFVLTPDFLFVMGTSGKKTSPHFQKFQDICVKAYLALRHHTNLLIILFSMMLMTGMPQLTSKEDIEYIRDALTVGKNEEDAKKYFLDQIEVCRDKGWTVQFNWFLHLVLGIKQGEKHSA
Protocol: (§6) Concentration setting for preliminary screening: the compounds to be tested were dissolved in DMSO (dimethyl sulfoxide) to 100 μM or 10 μM as storage solutions; for each one, 2 μL was taken to be added to 48 μL of 1× Reaction Buffer to obtain a 4 μM or 400 nM compound solution containing 4% DMSO. After well mixing, the mixture was diluted with 4% DMSO in 1× Reaction Buffer to obtain a 4 μM or 400 nM compound solution. 5 μL of each diluted solution was taken to be added to a 384-well plate, so that the final concentration of the compound in the final 20 μL of the kinase reaction system was 1 μM and 100 nM or 100 nM and 20 nM, respectively, and containing 1% DMSO.
(§7) The compounds to be tested were dissolved in DMSO to 1 mM or 10 mM as working solutions, 1 μL of each working solution was taken to be added to 24 μl of 1× Kinase Buffer A to obtain a 40 μM or 400 μM compound solution containing 4% DMSO. The compound solution was diluted by 4× gradient in sequence, 10 dilution concentrations.
(§8) Calculation of the Inhibition Rate • The inhibitory rate was calculated by the following formula: Inhibitory rate=(ERsample−ER0%)/(ER100%−ER0%)×100%

PI3Kα = PI3Kα (Homo sapiens, UniProt P42336); experiment: PI3K kinase activity, α isoform; conditions: for inhibition at 0.02 µM: read-out: IH (%) @ 20 nM, α
PI3Kα, sequence (P42336 whole entry, canonical isoform): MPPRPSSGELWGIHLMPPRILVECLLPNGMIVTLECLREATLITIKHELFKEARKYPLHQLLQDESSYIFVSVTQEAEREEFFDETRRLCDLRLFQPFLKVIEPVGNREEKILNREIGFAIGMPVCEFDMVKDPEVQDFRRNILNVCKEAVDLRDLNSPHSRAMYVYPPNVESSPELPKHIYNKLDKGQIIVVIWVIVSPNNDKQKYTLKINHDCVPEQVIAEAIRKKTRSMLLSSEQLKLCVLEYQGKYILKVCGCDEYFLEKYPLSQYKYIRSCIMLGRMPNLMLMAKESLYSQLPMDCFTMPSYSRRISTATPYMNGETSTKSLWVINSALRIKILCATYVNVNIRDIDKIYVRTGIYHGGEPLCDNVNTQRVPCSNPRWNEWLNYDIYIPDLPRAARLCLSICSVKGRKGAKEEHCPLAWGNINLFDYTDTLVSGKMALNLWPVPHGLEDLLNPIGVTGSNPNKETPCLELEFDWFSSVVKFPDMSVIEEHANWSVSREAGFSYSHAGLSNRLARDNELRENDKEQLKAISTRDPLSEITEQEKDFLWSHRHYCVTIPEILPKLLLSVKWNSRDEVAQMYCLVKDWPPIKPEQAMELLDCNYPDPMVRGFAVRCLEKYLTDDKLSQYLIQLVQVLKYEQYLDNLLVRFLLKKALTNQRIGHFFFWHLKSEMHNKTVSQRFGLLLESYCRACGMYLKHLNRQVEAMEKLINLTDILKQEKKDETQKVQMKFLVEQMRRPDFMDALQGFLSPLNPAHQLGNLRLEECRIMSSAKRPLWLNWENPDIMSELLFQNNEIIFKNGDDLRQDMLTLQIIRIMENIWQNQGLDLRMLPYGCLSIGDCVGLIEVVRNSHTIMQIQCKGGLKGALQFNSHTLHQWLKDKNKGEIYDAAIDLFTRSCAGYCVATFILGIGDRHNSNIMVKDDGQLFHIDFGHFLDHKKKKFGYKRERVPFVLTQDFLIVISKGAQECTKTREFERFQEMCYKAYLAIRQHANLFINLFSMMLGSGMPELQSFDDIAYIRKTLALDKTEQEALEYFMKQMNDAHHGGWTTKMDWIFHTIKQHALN
PI3Kα, sequence (P27986 whole entry partner, canonical isoform): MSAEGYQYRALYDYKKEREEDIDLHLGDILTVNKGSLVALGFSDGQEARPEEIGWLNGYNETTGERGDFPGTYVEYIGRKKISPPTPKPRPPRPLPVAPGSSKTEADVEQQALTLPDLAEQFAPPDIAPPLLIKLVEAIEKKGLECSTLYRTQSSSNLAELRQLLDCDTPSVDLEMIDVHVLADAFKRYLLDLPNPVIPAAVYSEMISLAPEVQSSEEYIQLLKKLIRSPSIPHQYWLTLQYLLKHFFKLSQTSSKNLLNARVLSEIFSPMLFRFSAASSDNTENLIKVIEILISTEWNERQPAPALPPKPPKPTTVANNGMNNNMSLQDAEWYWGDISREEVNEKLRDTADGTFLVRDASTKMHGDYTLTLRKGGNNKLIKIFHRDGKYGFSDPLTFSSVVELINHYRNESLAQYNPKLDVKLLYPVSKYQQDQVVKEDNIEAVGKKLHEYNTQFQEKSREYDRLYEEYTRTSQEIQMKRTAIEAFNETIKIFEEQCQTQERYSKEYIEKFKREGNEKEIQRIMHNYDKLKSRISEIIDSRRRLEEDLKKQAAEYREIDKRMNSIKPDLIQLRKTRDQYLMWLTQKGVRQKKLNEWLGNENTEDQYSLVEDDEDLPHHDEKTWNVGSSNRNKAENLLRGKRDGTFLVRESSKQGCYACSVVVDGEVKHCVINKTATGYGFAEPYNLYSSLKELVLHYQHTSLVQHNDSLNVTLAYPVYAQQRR
Protocol: as §6, §7, §8

PI3Kδ = PI3Kδ (Homo sapiens, UniProt O00329); experiment: PI3K kinase activity, δ isoform; conditions: for inhibition at 0.02 µM: read-out: IH (%) @ 20 nM, δ
PI3Kδ, sequence (O00329 whole entry, canonical isoform): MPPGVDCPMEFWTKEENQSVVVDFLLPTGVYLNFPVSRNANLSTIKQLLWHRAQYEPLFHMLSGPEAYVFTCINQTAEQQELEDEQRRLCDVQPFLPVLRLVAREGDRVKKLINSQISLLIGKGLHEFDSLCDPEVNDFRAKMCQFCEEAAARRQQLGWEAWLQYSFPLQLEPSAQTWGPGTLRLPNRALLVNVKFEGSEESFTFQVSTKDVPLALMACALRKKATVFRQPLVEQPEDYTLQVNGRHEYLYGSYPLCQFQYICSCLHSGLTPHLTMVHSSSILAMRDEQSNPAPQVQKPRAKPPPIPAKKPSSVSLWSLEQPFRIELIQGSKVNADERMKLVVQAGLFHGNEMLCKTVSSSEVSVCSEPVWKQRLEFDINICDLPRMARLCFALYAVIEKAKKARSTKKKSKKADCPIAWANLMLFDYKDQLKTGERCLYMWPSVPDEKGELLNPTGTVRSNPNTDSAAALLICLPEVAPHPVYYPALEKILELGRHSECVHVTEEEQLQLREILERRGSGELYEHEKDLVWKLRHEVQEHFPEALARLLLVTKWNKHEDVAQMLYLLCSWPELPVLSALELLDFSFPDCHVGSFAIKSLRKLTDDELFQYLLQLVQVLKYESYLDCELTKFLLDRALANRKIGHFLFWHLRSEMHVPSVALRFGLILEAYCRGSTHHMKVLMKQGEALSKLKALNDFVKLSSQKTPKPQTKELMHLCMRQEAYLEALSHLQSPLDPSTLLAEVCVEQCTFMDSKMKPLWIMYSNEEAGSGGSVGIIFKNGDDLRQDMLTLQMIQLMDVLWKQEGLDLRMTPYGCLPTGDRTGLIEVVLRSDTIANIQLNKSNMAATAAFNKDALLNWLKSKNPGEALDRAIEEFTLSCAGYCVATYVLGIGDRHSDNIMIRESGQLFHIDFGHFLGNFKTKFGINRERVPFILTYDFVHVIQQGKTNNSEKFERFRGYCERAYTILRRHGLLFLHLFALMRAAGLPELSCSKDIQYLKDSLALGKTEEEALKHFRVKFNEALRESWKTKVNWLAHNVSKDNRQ
PI3Kδ, sequence (P27986 whole entry partner, canonical isoform): as the sequence (P27986 whole entry partner, canonical isoform) above
Protocol: as §6, §7, §8

PI3Kβ = PI3Kβ (Homo sapiens, UniProt P42338); experiment: PI3K kinase activity, β isoform; conditions: for inhibition at 0.1 µM: read-out: IH (%) @ 100 nM, β;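 as to all read-outs here: kinase reaction containing 1% DMSO, read as an emission ratio, with inhibition scaled between the 0% and 100% control ratios. IC50 values come from a ten-point fourfold dilution series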
PI3Kβ, sequence (P42338 whole entry, canonical isoform): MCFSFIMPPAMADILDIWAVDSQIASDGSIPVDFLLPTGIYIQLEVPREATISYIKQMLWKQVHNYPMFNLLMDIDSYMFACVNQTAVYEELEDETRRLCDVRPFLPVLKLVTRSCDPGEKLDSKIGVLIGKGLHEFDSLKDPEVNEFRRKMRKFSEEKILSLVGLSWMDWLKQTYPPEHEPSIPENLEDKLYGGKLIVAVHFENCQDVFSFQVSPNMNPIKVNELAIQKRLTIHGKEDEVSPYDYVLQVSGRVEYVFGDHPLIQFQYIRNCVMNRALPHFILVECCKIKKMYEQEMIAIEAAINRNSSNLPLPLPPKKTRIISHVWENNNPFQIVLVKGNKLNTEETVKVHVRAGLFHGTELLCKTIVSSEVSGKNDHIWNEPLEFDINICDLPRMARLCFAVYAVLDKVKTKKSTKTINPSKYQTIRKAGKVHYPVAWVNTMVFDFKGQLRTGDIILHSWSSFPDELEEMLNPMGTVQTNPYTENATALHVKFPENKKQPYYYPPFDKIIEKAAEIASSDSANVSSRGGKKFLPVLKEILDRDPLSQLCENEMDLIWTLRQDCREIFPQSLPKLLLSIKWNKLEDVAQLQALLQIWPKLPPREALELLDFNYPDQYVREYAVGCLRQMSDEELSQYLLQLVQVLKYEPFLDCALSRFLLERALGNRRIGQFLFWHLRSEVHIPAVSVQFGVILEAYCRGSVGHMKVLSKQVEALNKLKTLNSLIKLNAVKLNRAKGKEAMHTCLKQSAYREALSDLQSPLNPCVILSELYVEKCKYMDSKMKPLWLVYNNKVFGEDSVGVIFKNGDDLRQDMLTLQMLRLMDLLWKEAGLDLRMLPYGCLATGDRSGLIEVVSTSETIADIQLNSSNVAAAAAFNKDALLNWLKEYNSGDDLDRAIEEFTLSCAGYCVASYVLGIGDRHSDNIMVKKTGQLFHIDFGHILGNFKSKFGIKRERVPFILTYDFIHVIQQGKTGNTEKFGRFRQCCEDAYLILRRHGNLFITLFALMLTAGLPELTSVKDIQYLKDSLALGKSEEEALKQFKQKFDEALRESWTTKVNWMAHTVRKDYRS
PI3Kβ, sequence (P27986 whole entry partner, canonical isoform): as the sequence (P27986 whole entry partner, canonical isoform) above
Protocol: as §6, §7, §8

[1] = Preliminary pharmacokinetic test, intravenous injection; assay type: in vivo, SD rats; conditions: 5 mg/kg, rats, intravenous injection 5 mg/kg, tested as monomesylate; for Vd: read-out: Vss
Protocol: (§1) 1. 14 healthy SD rats, male, weigh 200-220 g, were taken to be randomly divided into 4 groups, 3-4 in each group, and were administered the tested compound P-17 and compound CYH33 (compared with compound P-17, missing a methyl group on 7-position) via intragastric administration (10 mg/kg) and intravenous injection (5 mg/kg) respectively, the specific arrangements are shown in the following table 3:
(§2) The rats were fasted for 12 h before experiment, water was taken freely. The rats were fed 2 h after dosing.
Dosing via intravenous: 5 min, 0.25 h, 0.5 h, 1.0 h, 2.0 h, 4.0 h, 6.0 h, 8.0 h, and 24 h after dosing.
(§3) At the above setting time points, 0.3 ml of venous blood was taken from the retroorbital venous plexus of the rat, and placed in a heparinized test tube, centrifuged at 11,000 rpm for 5 min, then the plasma was separated, and frozen in a refrigerator at −20° C.
(§4) LC/MS/MS method was used to determine the concentration of the compounds in the plasma of rats.
(§5) The non-compartment model of Phoenix 1.3 software (Pharsight Corporation, USA) was used to calculate the pharmacokinetic parameters after dosing.

[2] = Preliminary pharmacokinetic test, intragastric administration; assay type: in vivo, SD rats; conditions: rats; for half-life: read-out: T½ (converted)
Protocol: as §1, §2
Dosing via intragastric administration: 0.25 h, 0.5 h, 1.0 h, 2.0 h, 3.0 h, 4.0 h, 6.0 h, 8.0 h, and 24 h after dosing.
as §3, §4, §5

[3] = male, SD, rat, plasma, iv, Mean
[4] = male, SD, rat, plasma, iv, individual animal

Compound: CS(=O)(=O)N1CCN(Cc2cc3c(N4CCOCC4)nc(-c4cnc(N)cc4C(F)(F)F)nn3c2Cl)CC1 [Compound P-11]
IC50 (PI3Kγ): 248 nM
inhibition at 0.1 µM (PI3Kγ): 19.4%
pIC50 (PI3Kα): 7.67
inhibition at 0.02 µM (PI3Kα): 72.8%
pIC50 (PI3Kδ): 7.55
inhibition at 0.02 µM (PI3Kδ): 50.3%
pIC50 (PI3Kβ): 5.84
inhibition at 0.1 µM (PI3Kβ): 15.8%

Compound: Cc1c(CN2CCN(C(=O)C(C)(C)O)CC2)cc2c(N3CCOCC3)nc(-c3cnc(N)cc3C(F)(F)F)nn12 [Compound P-13]
inhibition at 0.1 µM (PI3Kγ): 2.16%
inhibition at 0.02 µM (PI3Kα): 30.5%
inhibition at 0.02 µM (PI3Kδ): 41.2%
inhibition at 0.1 µM (PI3Kβ): 2.34%

Compound: Cc1c(CN2CCN(C(=O)[C@H](C)O)CC2)cc2c(N3CCOCC3)nc(-c3cnc(N)cc3C(F)(F)F)nn12 [Compound P-14]
IC50 (PI3Kγ): 1950 nM
inhibition at 0.1 µM (PI3Kγ): 6.83%
pIC50 (PI3Kα): 7.11
inhibition at 0.02 µM (PI3Kα): 24.8%
pIC50 (PI3Kδ): 7.07
inhibition at 0.02 µM (PI3Kδ): 63.3%
pIC50 (PI3Kβ): 5.58
inhibition at 0.1 µM (PI3Kβ): 3.44%

Compound: Cc1c(CN2CCN(S(C)(=O)=O)CC2)cc2c(N3CCOCC3)nc(-c3cnc(NC(=O)NC4CC4)cc3C(F)(F)F)nn12 [Compound P-20]
IC50 (PI3Kγ): 36.6 nM
inhibition at 0.1 µM (PI3Kγ): 68.3%
pIC50 (PI3Kα): 7.97
inhibition at 0.02 µM (PI3Kα): 102%
pIC50 (PI3Kδ): 8.43
inhibition at 0.02 µM (PI3Kδ): 83.1%
pIC50 (PI3Kβ): 6.91
inhibition at 0.1 µM (PI3Kβ): 57.4%

Compound: CS(=O)(=O)N1CCN(Cc2cc3nc(-c4cccc5[nH]ncc45)nc(N4CCOCC4)c3s2)CC1 [GDC0941, 2-(1H-indazol-4-yl)-6-[[4-(methylsulfonyl)-1-piperazinyl]methyl]-4-(4-morpholinyl)thieno[3,2-D]pyrimidine, reference compound]
inhibition at 0.02 µM (PI3Kα): 41.7%
inhibition at 0.02 µM (PI3Kδ): 56.3%
inhibition at 0.1 µM (PI3Kβ): 21.1%

More lines, now with the values ahead:

IC50 (PI3Kγ): 290 nM
inhibition at 0.1 µM (PI3Kγ): 47%
AUC(0-inf) [1, 3]: 3240 ng·h/mL
AUC(0-t) [1, 3]: 2990 ng·h/mL
clearance [1, 3]: 26.8 mL/min/kg
half-life [1, 3]: 2.1 h
MRT ([1]; male, SD, rat, plasma, iv, Mean, read-out: MRT): 2.71 h
Vd [1, 3]: 4.17 L/kg
AUC(0-inf) [1, 4]: 4190 ng·h/mL
AUC(0-t) [1, 4]: 3700 ng·h/mL
clearance [1, 4]: 19.8 mL/min/kg
half-life [1, 4]: 2.61 h
MRT ([1]; male, SD, rat, plasma, iv, individual animal, read-out: MRT): 3.53 h
Vd [1, 4]: 4.21 L/kg
AUC 0 − t ([1]; individual animal): 2564 ng·h/mL and 2711 ng·h/mL
AUC 0 − ∞ ([1]; individual animal): 2672 ng·h/mL and 2845 ng·h/mL
Cl ([1]; individual animal): 31.2 mL/min/kg and 29.3 mL/min/kg
MRT ([1]; individual animal): 2.13 h and 2.46 h
T1/2 ([1]; individual animal): 1.88 h and 1.82 h
Vss ([1]; individual animal): 3.98 L/kg and 4.33 L/kg
half-life ([2]; male, SD, rat, plasma, oral, 10 mg/kg, 10 mg/kg, Mean, monomesylate): 2.77 h
half-life ([2]; male, SD, rat, plasma, oral, 10 mg/kg, 10 mg/kg, individual animal, monomesylate): 3.08 h
AUC(0-inf) ([2]; male, SD, rat, plasma, oral, 10 mg/kg, Mean, monomesylate): 6120 ng·h/mL
bioavailability ([2]; male, SD, rat, plasma, oral, 10 mg/kg versus 5 mg/kg intravenous, monomesylate, read-out: F (absolute bioavailability)): 95.8%
steady-state distribution volume Vss, average residence time MRT, half-life T½ and absolute bioavailability F compared with CYH33 (in words) ([2]; monomesylates): improved
pIC50 (PI3Kα): 7.12
inhibition at 0.02 µM (PI3Kα): 60.7%
pIC50 (PI3Kδ): 7.12
inhibition at 0.02 µM (PI3Kδ): 64.1%
pIC50 (PI3Kβ): 6.04
inhibition at 0.1 µM (PI3Kβ): 16%
Compound: COC(=O)Nc1cc(C(F)(F)F)c(-c2nc(N3CCOCC3)c3cc(CN4CCN(S(C)(=O)=O)CC4)c(C)n3n2)cn1 [Compound P-17]

IC50 (PI3Kγ): 37.5 nM
inhibition at 0.1 µM (PI3Kγ): 74.1%
pIC50 (PI3Kα): 7.66
inhibition at 0.02 µM (PI3Kα): 89.3%
pIC50 (PI3Kδ): 8.21
inhibition at 0.02 µM (PI3Kδ): 107%
pIC50 (PI3Kβ): 6.86
inhibition at 0.1 µM (PI3Kβ): 46.3%
Compound: CCNC(=O)Nc1cc(C(F)(F)F)c(-c2nc(N3CCOCC3)c3cc(CN4CCN(S(C)(=O)=O)CC4)c(C)n3n2)cn1 [Compound P-21]

IC50 (PI3Kγ): 311 nM
inhibition at 0.1 µM (PI3Kγ): 30.3%
pIC50 (PI3Kα): 6.91
inhibition at 0.02 µM (PI3Kα): 50%
pIC50 (PI3Kδ): 7.53
inhibition at 0.02 µM (PI3Kδ): 46.5%
pIC50 (PI3Kβ): 5.81
inhibition at 0.1 µM (PI3Kβ): 15.1%
Compound: Cc1c(CN2CCN(S(C)(=O)=O)CC2)cc2c(N3CCOCC3)nc(-c3cnc(NC(=O)NC(C)C)cc3C(F)(F)F)nn12 [Compound P-22]

IC50 (PI3Kγ): 47.1 nM
inhibition at 0.1 µM (PI3Kγ): 67%
pIC50 (PI3Kα): 7.73
inhibition at 0.02 µM (PI3Kα): 77.9%
pIC50 (PI3Kδ): 8.00
inhibition at 0.02 µM (PI3Kδ): 77.1%
pIC50 (PI3Kβ): 6.96
inhibition at 0.1 µM (PI3Kβ): 32.6%
Compound: Cc1c(CN2CCN(S(C)(=O)=O)CC2)cc2c(N3CCOCC3)nc(-c3cnc(NC(=O)Nc4ccc(F)cc4)cc3C(F)(F)F)nn12 [Compound P-23]
